Laboratory results reported in patent US20070269494A1, “Compositions and methods for enhancing active agent absorption” (Nexus Pharma, Inc., priority 2006, published 2007).

Tested on: Sprague-Dawley rats
Experiment: Blood glucose depression by intracolonically administered bovine pancreatic insulin with absorption enhancer
Assay type: in vivo
Details: for Blood glucose as % of basal level: enhancer 0 mg/kg (insulin without enhancer), intracolonic, rats
Procedure: It is neutralized by 1 equivalent of sodium hydroxide. The pH is adjusted to 7-8 by 1N HCl and saturated sodium bicarbonate. Bovine pancreatic insulin (1.75 mL; Sigma, 10 mg/mL; in pH 8.2 HEPES buffer) is added and mixed by gentle swirling. The solution density is determined so that the required dose may be calculated.
The solution is then given to Sprague-Dawley rats (female, 250-300 g, n=3), intracolonically. Blood samples are taken from the tail vein and glucose levels measured using an OneTouch® UltraSmart® blood glucose meter.
As insulin reduces glucose levels in the blood, a depression in glucose levels indicates insulin reaching the blood efficaciously.

Compound | 50% depression at 60 min. (blood glucose from basal level) (enhancer dose 200 mg/Kg, insulin 7 mg/Kg, procedure of Example 12) | Blood glucose as % of basal level (0 min) [%] | Blood glucose as % of basal level (30 min) [%] | Blood glucose as % of basal level (60 min) [%] | Blood glucose as % of basal level (90 min) [%] | Blood glucose as % of basal level (120 min) [%] | Blood glucose as % of basal level (150 min) [%] | Blood glucose as % of basal level (180 min) [%] | Blood glucose as % of basal level (210 min) [%] | Blood glucose as % of basal level (240 min) [%]
COC(=O)c1ccc(NC(=O)CCC(=O)O)cc1O [Example 20, methyl 4-(3-carboxy-propionylamino)] | negative (a 50% reduction in glucose levels was not reached in 60 minutes) | – | – | – | – | – | – | – | – | –
bovine pancreatic insulin: Bovine pancreatic insulin (Sigma, 10 mg/mL; in pH 8.2 HEPES buffer), the active agent co-administered | – | 100 | 94 ± 4 | 102 ± 7 | 105 ± 3 | 107 ± 7 | 94 ± 7 | 111 ± 7 | 113 ± 4 | 100 ± 7
